Assay results published in patent US7034048B2, “Gastrin and cholecystokinin receptor ligands (III)” (James Black Foundation Limited, priority 2000, dated 2006).

Molecular target: T1, gastrin (CCK2) receptors (Rattus norvegicus, UniProt P30553)
T1 construct: The stomach was excised and flushed with ca. 1 ml of unbuffered physiological saline solution; from tissue; host or cells: isolated, lumen-perfused stomach of immature rats (33-50 g, ca. 21 days old)
T1 sequence (P30553 1-452): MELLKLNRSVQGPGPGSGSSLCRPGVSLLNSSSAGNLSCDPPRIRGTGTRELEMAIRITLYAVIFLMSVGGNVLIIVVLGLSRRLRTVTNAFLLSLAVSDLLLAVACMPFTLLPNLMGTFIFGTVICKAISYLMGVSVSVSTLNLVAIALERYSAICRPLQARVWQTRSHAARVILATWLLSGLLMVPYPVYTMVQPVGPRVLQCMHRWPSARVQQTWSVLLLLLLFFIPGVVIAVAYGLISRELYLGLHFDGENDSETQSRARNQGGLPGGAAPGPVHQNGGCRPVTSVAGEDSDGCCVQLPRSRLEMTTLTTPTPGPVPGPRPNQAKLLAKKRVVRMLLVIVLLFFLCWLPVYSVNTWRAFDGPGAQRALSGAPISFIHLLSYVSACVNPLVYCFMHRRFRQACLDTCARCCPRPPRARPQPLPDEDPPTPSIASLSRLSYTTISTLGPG
Assay: immature rat stomach assay, gastrin (CCK2) antagonist activity against pentagastrin-stimulated acid secretion
Details: isolated immature rat stomach, 60 min incubation, then cumulative pentagastrin dose-response curves, read-out: Rat Stomach pKB (converted)
Protocol: The compounds of the examples were tested for gastrin (CCK2) antagonist activity in an immature rat stomach assay. The procedure was as follows: The oesophagus of immature rats (33–50 g, ca. 21 days old) was ligated at the level of the cardiac sphincter and the duodenal sphincter was cannulated. The stomach was excised and flushed with ca. 1 ml of unbuffered physiological saline solution. The fundus was punctured and cannulated. A further 4–5 ml of unbuffered solution was flushed through the stomach to ensure the preparation was not leaking. The stomach was lowered into a jacketed organ bath containing 40 ml of buffered solution containing 3×10^−8 M 5-methylfurmethide, maintained at 37° and gassed vigorously with 95% O2/5% CO2. The stomach was continuously perfused at a rate of 1 ml min^−1 with unbuffered solution gassed with 100% O2 with the perfusate passing over an internally referenced pH-electrode fixed 12 cm above the stomach. After 120 min of stabilisation the drugs were added directly to the serosal solution in the organ bath and after a further 60 min cumulative pentagastrin dose-response curves were started. Changes in acid secretion were monitored and the curves analysed according to Black et al., Br. J. Pharmacol. 1985, 86, 581.

Structure (SMILES) | Kb
O=C(O)c1ccc2oc(-c3nc(C4CCCCC4)[nH]c3COC34CC5CC(CC(C5)C3)C4)nc2c1 [Example 1, 2-[5-(Adamantan-1-yloxymethyl)-2-cyclohexyl-1H-imidazole-4-yl]-benzooxazole-5-carboxylic acid] | 3310 nM
O=C(O)c1ccc2nc(-c3nc(C4CCCCC4)[nH]c3COC34CC5CC(CC(C5)C3)C4)oc2c1 [Example 2, 2-[5-(Adamantan-1-yloxymethyl)-2-cyclohexyl-1H-imidazole-4-yl]-benzooxazole-6-carboxylic acid] | 1620 nM
O=C(O)c1ccc2[nH]c(-c3nc(C4CCCCC4)[nH]c3COC34CC5CC(CC(C5)C3)C4)nc2c1 [Example 3, 2-[5-(Adamantan-1-yloxymethyl)-2-cyclohexyl-1H-imidazole-4-yl]-1H-benzoimidazole-5-carboxylic acid] | 3390 nM
O=C(O)c1cccc2[nH]c(-c3nc(C4CCCCC4)[nH]c3COC34CC5CC(CC(C5)C3)C4)nc12 [Example 4, 2-[5-(Adamantan-1-yloxymethyl)-2-cyclohexyl-1H-imidazole-4-yl]-1H-benzoimidazole-4-carboxylic acid] | 372 nM
O=C(O)Cc1ccc2oc(-c3nc(C4CCCCC4)[nH]c3COC34CC5CC(CC(C5)C3)C4)nc2c1 [Example 5, {2-[5-(Adamantan-1-yloxymethyl)-2-cyclohexyl-1H-imidazole-4-yl]-benzooxazol-5-yl}-acetic acid] | 2040 nM
